“Also recorded” adds a separate entry of the source. Values belong to the molecule of their own block, whether it stands above or below them.
What was measured:
[1] = Pharmacokinetic study, single-dose oral administration of tetrabenazine 25 mg to healthy adult male volunteers: plasma levels of tetrabenazine and DHTBZ isomers; type: in vivo, human; conditions: for Kel: N=08, unit not given; for status as metabolite of tetrabenazine in humans: single and multiple dose tetrabenazine 25 mg, Tables 1 and 2
Protocol: (§1) A pharmacokinetic study was carried out in healthy adult male volunteers under fasting conditions at a dose of single and multiple oral administration of 25 mg tablets once a day to ascertain the plasma levels of +/−α and +/−β dihydro-tetrabenazine.
Table 1 summarises the pharmacokinetic data obtained following single-dose oral administration of tetrabenazine at a dose level of 25 mg (fasting, N=08).

[2] = biological target: Chromaffin Granule Monoamine Transporter (Bos taurus, UniProt Q27963); conditions: cited from earlier work
Chromaffin Granule Monoamine Transporter, sequence (Q27963 whole entry): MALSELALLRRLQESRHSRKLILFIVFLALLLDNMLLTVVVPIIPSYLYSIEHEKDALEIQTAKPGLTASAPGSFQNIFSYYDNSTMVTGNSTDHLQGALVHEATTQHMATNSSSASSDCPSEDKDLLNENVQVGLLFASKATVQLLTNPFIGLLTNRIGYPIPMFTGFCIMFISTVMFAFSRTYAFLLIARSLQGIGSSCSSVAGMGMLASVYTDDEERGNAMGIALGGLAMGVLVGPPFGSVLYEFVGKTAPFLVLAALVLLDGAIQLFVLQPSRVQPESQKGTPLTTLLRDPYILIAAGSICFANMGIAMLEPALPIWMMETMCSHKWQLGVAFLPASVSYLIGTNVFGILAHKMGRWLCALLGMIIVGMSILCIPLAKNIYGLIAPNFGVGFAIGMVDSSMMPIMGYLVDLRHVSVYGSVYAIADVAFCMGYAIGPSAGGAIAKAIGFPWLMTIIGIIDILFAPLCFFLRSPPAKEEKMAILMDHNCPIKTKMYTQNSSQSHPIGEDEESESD

[3] = tested on: male CD rats; assay: Amphetamine induced locomotor activity and stereotypies in the open field arena; type: in vivo, rat; conditions: amphetamine at t=30 min; for normalised total distance travelled, compared to vehicle-amphetamine group / normalised total stereotypic behaviour, compared to vehicle-amphetamine group: listed as (+)-β-DHTBZ
Protocol: Resulting locomotor activity was evaluated in 3 min bins and as a total over the testing period. […] Resulting stereotypic activity was evaluated in 3 min bins and as a total over the testing period.

[4] = Pharmacokinetic study, multiple-dose oral administration of tetrabenazine 25 mg once a day to healthy adult male volunteers: plasma levels; type: in vivo; conditions: multiple-dose oral tetrabenazine 25 mg once a day, fasting, N=07, human plasma
Protocol: as §1
Table 2 summarises the pharmacokinetic data obtained following multiple-dose oral administration of tetrabenazine at a dose level of 25 mg (fasting, N=07).

[5] = rat brain, stereochemistry not disclosed; cited from earlier work
[6] = single-dose oral tetrabenazine 25 mg, fasting
[7] = single-dose oral tetrabenazine 25 mg, fasting, N=08, human plasma

Kel [1, 6]: 0.19
Molecule: COc1cc2c(cc1OC)C1CC(=O)C(CC(C)C)CN1CC2 (racemic) [Tetrabenazine, 1,3,4,6,7,11b-hexahydro-9,10-dimethoxy-3-(2-methylpropyl)-2H-benzo(a)quinolizin-2-one]

Kel [1, 6]: 0.10
Molecule: COc1cc2c(cc1OC)[C@@H]1C[C@H](O)[C@@H](CC(C)C)CN1CC2 [(−)-α-dihydrotetrabenazine]
status as metabolite of tetrabenazine in humans [1]: major metabolites; also recorded: main metabolites

status as metabolite of tetrabenazine in humans [1]: minor metabolites | Cmax ([1]; single dose study, tetrabenazine administered to adult male humans): 5.28 ng/mL | area under the curve (AUC) ([1]; single dose study, tetrabenazine administered to adult male humans (unit not given)): 16.28 | AUC(0-inf.) [1, 7]: 18.77 ng·h/mL | AUC(0-t) [1, 7]: 16.28 ng·h/mL | Cmax [1, 7]: 5.28 ng/mL | Extrapolated AUC [1, 7]: 17.66% | Half-life (Mean) [1, 7]: 12.98 h | Tmax Mean [1, 7]: 1.03 h | Kel [1, 6]: 0.45 | AUC(0-t) [4]: 25.17 ng·h/mL | Cmaxss [4]: 7.78 ng/mL | Cminss [4]: 0.16 ng/mL | Ctss [4]: 0.57 ng/mL | Tmaxss Mean [4]: 97.11 h
Molecule: COc1cc2c(cc1OC)[C@@H]1C[C@@H](O)[C@@H](CC(C)C)CN1CC2 [(−)-β-dihydrotetrabenazine]

Further lines, the molecule ahead of its results:

Molecule: COc1cc2c(cc1OC)[C@H]1C[C@@H](O)[C@H](CC(C)C)CN1CC2 [(+)-α-dihydrotetrabenazine]
status as metabolite of tetrabenazine in humans [1]: minor metabolites | Kel [1, 6]: 0.17 | more active than the (+)-β-isomer ([2]; earlier findings, as worded): 3- to 4 times

Molecule: COc1cc2c(cc1OC)[C@H]1C[C@H](O)[C@H](CC(C)C)CN1CC2 [(+)-β-dihydrotetrabenazine, (S,R,R)-3-isobutyl-9,10-dimethyloxy-1,3,4,5,7,11b-hexahydro-2H-pyrido[2,1-a]isoquinolin-2-ol]
status as metabolite of tetrabenazine in humans [1]: major metabolites; also recorded: main metabolites | Kel [1, 6]: 0.13 | normalised total stereotypic behaviour, compared to vehicle-vehicle group ([3]; 2.5 mg/kg at t=0 min): significantly different | normalised total distance travelled, compared to vehicle-amphetamine group ([3]; 2.5 mg/kg at t=0 min): lower locomotor activity | normalised total stereotypic behaviour, compared to vehicle-amphetamine group ([3]; 2.5 mg/kg at t=0 min): significantly different; also recorded: reduced stereotypic behaviour | normalised total stereotypic behaviour, compared to vehicle-vehicle group ([3]; 5 mg/kg at t=0 min): significantly different | normalised total distance travelled, compared to vehicle-amphetamine group ([3]; 5 mg/kg at t=0 min): lower locomotor activity | normalised total stereotypic behaviour, compared to vehicle-amphetamine group ([3]; 5 mg/kg at t=0 min): significantly different; also recorded: reduced stereotypic behaviour

Molecule: COc1cc2c(cc1OC)C1CC(O)C(CC(C)C)CN1CC2 (stereo not shown) [dihydrotetrabenazine, 2-hydroxy-3-(2-methylpropyl)-1,3,4,6,7,11b-hexahydro-9,10-dimethoxy-benzo(a)quinolizine]
crossing of the blood-brain barrier [5]: able to cross the blood-brain barrier

Molecule: α-dihydrotetrabenazine
higher affinity than the β-isomer ([2]; racemic α- versus racemic β-dihydrotetrabenazine, in vitro): 3- to 4 fold
